One experiment concerns the target T1, hLBAT (Homo sapiens, UniProt Q14973).
T1 construct: expressed in transfected cells; kept under Geneticin selection
T1 sequence (Q14973 1-349): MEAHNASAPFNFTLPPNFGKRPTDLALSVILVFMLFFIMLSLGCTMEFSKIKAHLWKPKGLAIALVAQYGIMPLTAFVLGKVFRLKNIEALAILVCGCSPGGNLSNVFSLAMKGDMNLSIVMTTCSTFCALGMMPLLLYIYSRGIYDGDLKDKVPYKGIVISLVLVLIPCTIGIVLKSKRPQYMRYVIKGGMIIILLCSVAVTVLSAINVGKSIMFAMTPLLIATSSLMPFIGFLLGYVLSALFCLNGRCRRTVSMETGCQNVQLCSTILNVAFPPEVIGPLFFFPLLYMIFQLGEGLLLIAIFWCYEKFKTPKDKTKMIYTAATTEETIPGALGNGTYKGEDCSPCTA
The experiment is described as follows: LBAT (h/m) assay: 3H-taurocholic acid uptake in human LBAT-overexpressing cells. The experiment is classed as cell-based. Conditions: 0.3 μM 3H-taurocholic acid + 7.5 μM cold taurocholic acid, 20 minutes at 37° C. As for the experimental part:
LBAT (h/m) Assay Protocol
20,000 cells (Human or Mouse LBAT-overexpressing cells) were seeded in 96-wells plate (Corning CLS3809) in 100 μL MEM-alpha medium (Gibco 12571-063) supplemented with 10% FBS (Gibco 10438026) containing Geneticin (Gibco 10131-027) (1 mg/mL) and incubated at 37° C. in 5% CO2 for 24 hours. After incubation, media was decanted from the wells and cells were washed two times with 300 μL of basal MEM-alpha medium (FBS-free). After decanting basal MEM-alpha medium each time, plates were tapped against paper towel to ensure maximum removal of residual media. For human LBAT, incubation mix was prepared by adding test inhibitor dilutions (3-fold serial dilution in DMSO (Sigma D2650), 10 points) in MEM-alpha (without FBS) containing 0.3 μM 3H-taurocholic acid (ARC ART-1368) and 7.5 μM cold taurocholic acid (Sigma T4009) (maintaining 0.2% final DMSO concentration). For mouse LBAT, incubation mix was prepared by adding test inhibitor dilutions (3-fold serial dilution in DMSO, 10 points) in MEM-alpha (without FBS) containing 0.3 μM 3H-taurocholic acid and 25 μM cold taurocholic acid maintaining 0.2% final DMSO concentration). 50 μL of incubation mix containing test inhibitors was then added to the wells (in duplicate) and the plates were incubated for 20 minutes in a CO2 incubator at 37° C. After incubation, the reaction was stopped by keeping the plates on ice water mix for 2-3 minutes and then the incubation mix was aspirated completely from the wells. The wells were washed two times with 250 μL of chilled unlabelled 1 mM taurocholic acid dissolved in HEPES (Gibco 15630080)-buffered (10 mM) HBSS (Gibco 14175079) (pH 7.4). The plates were tapped against a paper towel after every wash to ensure maximum removal of blocking buffer.
100 μL of MicroScint-20 (PerkinElmer 6013621) was added to the wells and kept overnight at RT before reading the plates in TopCount NXT™ Microplate Scintillation and Luminescence Counter from PerkinElmer under 3H Test protocol (set at 120 seconds reading time per well, with normal plate orientation).
(§1) Preparation of Test Compound Dilutions
(§2) All test compounds were provided in powder form at RT. 10 mM DMSO stocks of the test compounds were prepared, aliquoted and stored at −20° C. From the 10 mM DMSO stock of the compounds, a 3-fold serial dilution in DMSO was prepared to get a total of 10 dilutions of the test compounds. 0.5 μL of this dilution in DMSO was added to 250 μL of FBS-free basal media containing 3H-taurocholic acid and cold taurocholic acid to prepare the incubation mixture.

Another experiment concerns the target T2, hIBAT (Homo sapiens, UniProt Q12908).
T2 construct: expressed in transfected cells; kept under Puromycin selection
T2 sequence (Q12908 1-348): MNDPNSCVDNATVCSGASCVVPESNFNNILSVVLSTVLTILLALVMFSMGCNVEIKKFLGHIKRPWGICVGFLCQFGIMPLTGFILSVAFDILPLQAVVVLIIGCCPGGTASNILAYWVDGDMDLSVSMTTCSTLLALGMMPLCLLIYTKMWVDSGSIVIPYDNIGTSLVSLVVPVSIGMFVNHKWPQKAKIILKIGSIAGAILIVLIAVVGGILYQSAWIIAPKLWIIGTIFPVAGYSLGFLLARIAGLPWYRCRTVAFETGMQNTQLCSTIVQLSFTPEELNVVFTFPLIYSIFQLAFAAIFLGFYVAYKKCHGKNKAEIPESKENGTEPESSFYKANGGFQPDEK
The experiment is described as follows: IBAT (h/m) assay: 3H-taurocholic acid uptake in human IBAT-overexpressing cells. The experiment is classed as cell-based. The conditions noted are these: 0.25 μM 3H-taurocholic acid + 5 μM cold taurocholic acid, 20 minutes at 37° C., highest test concentration 10 μM. As for the experimental part: IBAT (h/m) Assay Protocol
10,000 cells (Human or Mouse IBAT-overexpressing cells) were seeded in 96-wells plate (Corning CLS3809) in 200 μL MEM-alpha medium (Gibco 12571-063) supplemented with 10% FBS (Gibco 10438026) containing Puromycin (Gibco A1113803) (10 μg/mL) and incubated at 37° C. in 5% CO2 for 48 hours. After incubation, media was decanted from the wells and cells were washed two times with 300 μL of basal MEM-alpha medium (FBS-free). After decanting basal MEM-alpha medium each time, plates were tapped against paper towel to ensure maximum removal of residual media. Test inhibitor dilutions (highest test concentration being 10 μM, 3-fold serial dilution, 10 points) prepared in DMSO (Sigma D2650) were added in incubation mix (maintaining 0.2% final DMSO concentration) containing 0.25 μM 3H-taurocholic acid (ARC ART-1368) and 5 μM of cold taurocholic acid (Sigma T4009). 50 μL of incubation mix containing test inhibitors was then added to the wells (in duplicate) and the plates were incubated for 20 minutes in a CO2 incubator at 37° C. After incubation, the reaction was stopped by keeping the plates on ice water mix for 2-3 minutes and then the incubation mix was aspirated completely from the wells. The wells were washed two times with 250 μL of chilled unlabelled 1 mM taurocholic acid dissolved in HEPES (Gibco 15630080)-buffered (10 mM) HBSS (Gibco 14175079) (pH 7.4). The plates were tapped against a paper towel after every wash to ensure maximum removal of blocking buffer.
100 μL of MicroScint-20 (PerkinElmer 6013621) was added to the wells and kept overnight at RT before reading the plates in TopCount NXT™ Microplate Scintillation and Luminescence Counter from PerkinElmer under 3H Test protocol (set at 120 seconds reading time per well).
as §1, §2

Drawing on US20240067617A1 (Albireo AB, priority 2022, published 2024), this text covers IC50 for 16 molecules.

pIC50: −log10 of the molar value.

As for `CCCCC1(CC)CN(c2ccccc2)c2cc(SC)c(CSCC(=O)O)cc2S(=O)(=O)C1` (racemic) [Example 1, 2-(((3-butyl-3-ethyl-7-(methylthio)-1,1-dioxido-5-phenyl-2,3,4,5-tetrahydro-1,5-benzothiazepin-8-yl)methyl)thio)acetic acid], on hLBAT, the pIC50 was 5.42.

Take `CCCCC1(C)CN(c2ccccc2)c2cc(SC)c(CSCC(=O)O)cc2S(=O)(=O)C1` (racemic) [Example 4, 2-(((3-butyl-3-methyl-7-(methylthio)-1,1-dioxido-5-phenyl-2,3,4,5-tetrahydro-1,5-benzothiazepin-8-yl)methyl)thio)acetic acid]: the pIC50 on hLBAT is 5.14; on hIBAT, 9.10.

For `CCCCC1(CC)CN(c2ccc(F)cc2)c2cc(SC)c(CSCC(=O)O)cc2S(=O)(=O)C1` (racemic) [Example 6, 2-(((3-butyl-3-ethyl-5-(4-fluorophenyl)-7-(methylthio)-1,1-dioxido-2,3,4,5-tetrahydro-1,5-benzothiazepin-8-yl)methyl)thio)acetic acid], the pIC50 is less than 5.66 at hLBAT and 9.22 at hIBAT.

On to `CCCCC1(CC)CN(c2ccccc2)c2cc(SC)c(CSCC(=O)O)cc2S(=O)(=O)N1` (racemic) [Example 9, 2-(((3-butyl-3-ethyl-7-(methylthio)-1,1-dioxido-5-phenyl-2,3,4,5-tetrahydro-1,2,5-benzothiadiazepin-8-yl)methyl)thio)acetic acid], for which the pIC50 was less than 5.48 at hLBAT and 9.30 at hIBAT.

Regarding `CCCCC1CN(c2ccccc2)c2cc(SC)c(CSCC(=O)O)cc2S(=O)(=O)N1C` (racemic) [Example 11, 2-(((3-butyl-2-methyl-7-(methylthio)-1,1-dioxido-5-phenyl-2,3,4,5-tetrahydro-1,2,5-benzothiadiazepin-8-yl)methyl)thio)acetic acid], the pIC50 was 7.47 on hLBAT and 7.15 on hIBAT.

Take `CCCCC1(CC)CN(c2ccccc2)c2cc(OC)c(CSCC(=O)O)cc2S(=O)(=O)C1` (racemic) [Example 13, 2-(((3-Butyl-3-ethyl-7-methoxy-1,1-dioxido-5-phenyl-2,3,4,5-tetrahydro-1,5-benzothiazepin-8-yl)methyl)thio)acetic acid]: the pIC50 on hIBAT is 8.64.

With `CCCCC1(CC)CN(c2ccc(F)cc2)c2cc(SC)c(CSC(C)(C)C(=O)O)cc2S(=O)(=O)C1` (racemic) [Example 15, 2-(((3-Butyl-3-ethyl-5-(4-fluorophenyl)-7-(methylthio)-1,1-dioxido-2,3,4,5-tetrahydro-1,5-benzothiazepin-8-yl)methyl)thio)-2-methylpropanoic acid], the pIC50 on hLBAT is 6.75; at hIBAT, 7.22.

In the case of `CCCCC1(C)CN(c2ccccc2)c2cc(SC)c(CSC(C)(C)C(=O)O)cc2S(=O)(=O)C1` (racemic) [Example 18, 2-(((3-Butyl-3-methyl-7-(methylthio)-1,1-dioxido-5-phenyl-2,3,4,5-tetrahydro-1,5-benzothiazepin-8-yl)methyl)thio)-2-methylpropanoic acid], the pIC50 was 6.87 at hLBAT and 6.39 on hIBAT.

Consider `CCCCC1(CC)CN(c2ccccc2)c2cc(OC)c(CSC(C)(C)C(=O)O)cc2S(=O)(=O)C1` (racemic) [Example 25, 2-(((3-butyl-3-ethyl-7-methoxy-1,1-dioxido-5-phenyl-2,3,4,5-tetrahydro-1,5-benzothiazepin-8-yl)methyl)thio)-2-methylpropanoic acid], for which the pIC50 at hLBAT is 6.87; at hIBAT, 6.66.

For `CCCCC1(C)CN(c2ccccc2)c2cc(OC)c(CSCC(=O)O)cc2S(=O)(=O)C1` (racemic) [Example 27, 2-(((3-butyl-7-methoxy-3-methyl-1,1-dioxido-5-phenyl-2,3,4,5-tetrahydro-1,5-benzothiazepin-8-yl)methyl)thio)acetic acid], the values for the pIC50 on hLBAT and on hIBAT were less than 5.00 and 7.85, respectively.

Regarding `CCCCC1CN(c2ccc(F)cc2)c2cc(OC)c(CSCC(=O)O)cc2S(=O)(=O)N1C` (racemic) [Example 29, 2-(((3-butyl-5-(4-fluorophenyl)-7-methoxy-2-methyl-1,1-dioxido-2,3,4,5-tetrahydro-1,2,5-benzothiadiazepin-8-yl)methyl)thio)acetic acid], the values for the pIC50 on hLBAT and on hIBAT were 6.97 and 6.25, respectively.

Take `CCCCC1(CC)CN(c2ccc(F)cc2)c2cc(OC)c(CSC(C)(C)C(=O)O)cc2S(=O)(=O)C1` (racemic) [Example 33, 2-(((3-butyl-3-ethyl-5-(4-fluorophenyl)-7-methoxy-1,1-dioxido-2,3,4,5-tetrahydro-1,5-benzothiazepin-8-yl)methyl)thio)-2-methylpropanoic acid]: the pIC50 on hLBAT is 6.82; on hIBAT, 6.53.

In the case of `CCCCC1CN(c2ccccc2)c2cc(OC)c(CSCC(=O)O)cc2S(=O)(=O)N1C` (racemic) [Example 35, 2-(((3-butyl-7-methoxy-2-methyl-1,1-dioxido-5-phenyl-2,3,4,5-tetrahydro-1,2,5-benzothiadiazepin-8-yl)methyl)thio)acetic acid], the values for the pIC50 on hLBAT and at hIBAT were 6.44 and 5.51, respectively.

In the case of `CCCCC1CN(c2ccccc2)c2cc(OC)c(CSC(C)(C)C(=O)O)cc2S(=O)(=O)N1C` (racemic) [Example 37, 2-(((3-butyl-7-methoxy-2-methyl-1,1-dioxido-5-phenyl-2,3,4,5-tetrahydro-1,2,5-benzothiadiazepin-8-yl)methyl)thio)-2-methylpropanoic acid], the values for the pIC50 at hLBAT and on hIBAT were 7.68 and less than 5.00, respectively.

As to `CCCCC1(CC)CN(c2ccccc2)c2cc(SC)c(CSCC(=O)O)cc2S(=O)(=O)N1` (single isomer, unassigned) [10, enantiomer 2], the pIC50 at hIBAT is 8.77.

Turning to `CCCCC1(CC)CN(c2ccccc2)c2cc(OC)c(CSCC(=O)O)cc2S(=O)(=O)N1` (single isomer, unassigned) [45, enantiomer 2], the pIC50 at hIBAT was 8.49.

The term pIC50 denotes the IC50 on a negative log10 scale, so that one unit is a factor of ten.
